For assay [1], the system named is non-tumor fibroblasts AG 1523. The assay is described as follows: MTT reduction assay, non-tumor fibroblasts. It is filed as cell-based. The conditions noted are these: Homo sapiens, AG1523, 48 h incubation, read-out: IC50 ± SEM AG 1523. As to the method:
As positive control, two well-known anticancer drugs, namely TAM and 5-FU, were also tested on these cell lines. […] Regarding 5-FU, it is a broad-spectrum chemotherapeutic drug used to treat a variety of malignancies. Particularly, it has a long history of use against bladder tumors.
Cell culture conditions were the same as reported elsewhere. Briefly, cell lines were kept in DMEM containing 10% fetal calf serum. In addition, 100 U/mL of penicillin and 100 µg/mL streptomycin from Gibco (Grand Island, NY, USA) were further added. Cell cultures were kept at 37 °C under an atmosphere of 95% air/5% CO2 and 100% humidity. Sodium L-ascorbate, menadione (vitamin K3), TAM, and 5-FU were purchased from Sigma (St. Louis, MO, USA).
The cytotoxicity of the quinones was assessed by following the reduction of MTT (3-(4,5-dimethylthiazol-2-yl)-2,5-diphenyltetrazolium bromide) to formazan blue and the capability of cancer cells to proliferate, namely a clonogenic assay.
Cells were seeded into 96-well plates at a density of 10,000 cells/well for 24 h and then incubated for 48 h with or without the quinone derivatives. […] The IC50 values were determined using the GraphPad Prism software (San Diego, CA, USA). Further incubation procedures and optical density reading of colored solutions were performed according to Benites et al..
Background: Tetrazolium dyes change colour on reduction, which living cells bring about.

The test system of assay [2] is Hsp90. Kind of assay: Immunoblot of Hsp90 protein integrity in TLT cells. It is filed as cell-based, murine. As to conditions: 5 µM plus 1 mM ascorbate, 4 h. As to the method:
Cancer cells were incubated for 4 h with 5 µM menadione (K3) or 15 either in the absence or in the presence of 1 mM ascorbate (Asc). Ctl represents control untreated cells. * p < 0.05 as compared to control conditions. Cancer cells were incubated for 4 h in the absence and in the presence of compounds. Afterward, cells were washed twice with ice-cold PBS and then resuspended in RIPA lysis buffer supplemented with 1% protease inhibitor cocktail (Sigma–Aldrich, St. Louis, MO, USA) and 3% phosphatase inhibitor cocktail (Calbiochem, Darmstadt, Germany). Treatment of samples and electrophoresis conditions were conducted as previously reported. Mouse monoclonal primary antibodies against hsp90α/β C-terminus (F8), and against β-actin (clone AC-15), were purchased from Santa Cruz Biotechnology (Santa Cruz, CA, USA) and from Abcam (Cambridge, UK), respectively. Rabbit polyclonal antibodies against PARP were purchased from BD Biosciences (San Diego, CA, USA). Goat anti-rabbit antibody and rabbit anti-mouse polyclonal antibody were purchased respectively from Chemicon International (Temecula, CA, USA) and DakoCytomation (Glostrup, Denmark).
For orientation: A western blot detects proteins with antibodies after separation by electrophoresis.

Assay [3] relates to transplantable primary liver tumor (TLT). The assay is described as follows: In vivo antitumor activity in TLT-bearing mice. The conditions noted are these: TLT-bearing NMRI mice. Here is the method:
To go one-step further, we assessed the effect of the quinone derivative 15 in the TLT-bearing mice model. The dose of 15 used in this study (i.e., 10 mg/kg) was calculated according to doses of menadione, previously used by Verrax et al.. In mice treated with 15, the calculated mean survival time was 24.0 days as compared to 21.9 days in control untreated-animals, representing an increase in life span of 9.6 % (Figure 3). Although this ILS represents a marginal effect as compared to a minimum optimal effect […], a small trend can be inferred supporting a potential protective activity by 15, that requires to be further confirmed. […] To go further, studies are intended in the near future using a larger range of doses of 15.
Figure 3 Kaplan–Meier diagram in groups of TLT-bearing NMRI mice receiving intraperitoneal (i.p.) saline (control untreated animals). Compound 15 was also i.p. administered as 10 mg/kg body weight, 24 h after i.p. transplantation of TLT cells.
Young adult male NMRI mice (25–30 g) were obtained from Janvier Labs (Saint-Berthevin, France). After their placement at the University Animal Facilities, animals were randomized according to their body weight. They were housed in groups of five mice per cage (40 × 25 × 15 cm^3) in a constant temperature environment (22 °C) with alternating 12 h day/night cycles receiving standard food (UAR, Villemoisson-sur-Orge, France) and tap water ad libitum.
Taper et al. first observed the transplantable primary liver tumor (TLT) in 1966 in a two-month old female Swiss Webster mouse. […] Fritzler et al. further characterized the ultrastructure of TLT hepatoma ascites cells. Regarding our experimental conditions, the TLT tumor was maintained by weekly intraperitoneal (i.p.) transplantation (10^4 cells/mice). […] Then, mice mortality was daily recorded. […]
The antitumor activity was calculated according to Geran et al. using the mean survival time (m.s.t.) at day 30 and the increase in life span (ILS) calculated as ILS = [([…]) − 1] × 100. […]

The test system of assay [4] is MCF-7 (breast) cells. Also noted: method as in doi:10.1016/j.tetlet.2015.07.034. As to conditions: MTT, data from Valderrama et al. ref 16, read-out: IC50 ± SEM MCF-7; cited from earlier work.

Here are results for one compound from paper PMC7071032, “In Vitro Inhibition of Hsp90 Protein by Benzothiazoloquinazolinequinones Is Enhanced in The Presence of Ascorbate. A Preliminary In Vivo Antiproliferative Study” (Molecules, 2020).

In general, IC50 refers to the concentration at which inhibition is half-maximal.

Take `Cc1ccc2c(c1)SC1=NC3=C(C(=O)c4ccccc4C3=O)C(C)(O)N12` (stereo not drawn) [Compound 15]: the IC50 in assay [1] is 32.3 ± 3.31 µM; in assay [4], 2.98 ± 0.52 µM. The Hsp90 protein cleavage entry in assay [2] is “oxidative cleavage of Hsp90”. In addition, the “mean survival time (m.s.t.)” value in assay [3] (10 mg/kg i.p. single dose 24 h after i.p. transplantation, control 21.9 days) worked out at 24.0 days. In assay [3] (10 mg/kg i.p. single dose, vs control untreated animals), the “increase in life span (ILS)” value was 9.6%. For the same compound, in assay [3] (10 mg/kg i.p., control 21.2 ± 1.6 days, t-test p = 0.262, no significant difference), the “mean of individual mouse survival” value was determined as 22.8 ± 6.1 days.
